According to paper PMC8102459, “3,3′-Thiodipropionic acid (TDP), a possible precursor for the synthesis of polythioesters: identification of TDP transport proteins in Variovorax paradoxus TBEA6” (Applied Microbiology and Biotechnology, 2021):

How the values were obtained:
Assay in all cases: thermal shift assay, SYPRO Orange, real-time PCR
Assay type in all cases: binding
[1] = biological target: T1, TctC protein with locus tag VPARA-01760 (Variovorax paradoxus, UniProt A0A0H2MDR2); details: 1 μM protein, sodium phosphate pH 7.4, 0.1 to 3000 μM ligand
T1 construct: gene VPARA_01760; His-tagged (pET19b or pET23a)
T1 sequence (A0A0H2MDR2 1-326 limits assumed): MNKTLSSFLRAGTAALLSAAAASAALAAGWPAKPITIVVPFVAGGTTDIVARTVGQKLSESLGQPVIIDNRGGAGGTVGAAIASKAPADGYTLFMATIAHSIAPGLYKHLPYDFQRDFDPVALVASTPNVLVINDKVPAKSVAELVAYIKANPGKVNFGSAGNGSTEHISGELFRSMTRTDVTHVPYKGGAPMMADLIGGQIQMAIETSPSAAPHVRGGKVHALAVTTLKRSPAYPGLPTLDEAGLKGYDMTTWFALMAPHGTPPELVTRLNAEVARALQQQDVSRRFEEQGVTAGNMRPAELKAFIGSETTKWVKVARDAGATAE

[2] = biological target: T2, TctC-44430 (TctC, locus tag VPARA-44430) (Variovorax paradoxus, UniProt A0A0H2LXQ8); details: 1 μM protein, sodium phosphate pH 7.4; value is the melting temperature, not the shift; control Tm not given
T2 construct: gene VPARA_44430; His-tagged (pET19b N-terminal; pET23a C-terminal also made), E. coli BL21
T2 sequence (A0A0H2LXQ8 1-329 limits assumed): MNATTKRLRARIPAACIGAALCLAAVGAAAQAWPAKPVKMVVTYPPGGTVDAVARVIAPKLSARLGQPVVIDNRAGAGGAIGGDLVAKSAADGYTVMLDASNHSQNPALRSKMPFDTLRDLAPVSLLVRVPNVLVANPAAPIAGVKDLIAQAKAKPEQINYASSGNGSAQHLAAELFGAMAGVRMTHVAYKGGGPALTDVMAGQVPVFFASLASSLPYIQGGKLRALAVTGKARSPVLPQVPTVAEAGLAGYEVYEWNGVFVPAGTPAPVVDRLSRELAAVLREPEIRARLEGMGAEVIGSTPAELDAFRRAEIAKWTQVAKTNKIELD

[3] = biological target: T2, TctC-44430 (TctC, locus tag VPARA-44430); details: 1 μM protein, sodium phosphate pH 7.4; value is the melting temperature, not the shift; control Tm not given; remark: listed apart in the source

Row | SMILES | Tm shift [1] | Tm at 3000 μM gluconate [2] | Tm at 3000 μM TDP [3]
1 | O=C(O)[C@H](O)[C@@H](O)[C@H](O)[C@H](O)CO [gluconate] | VPARA-01760 also showed temperature shifts with TDP or gluconate | 83 °C | –
2 | O=C(O)CCSCCC(=O)O [TDP, 3,3′-Thiodipropionic acid] | VPARA-01760 also showed temperature shifts with TDP or gluconate | – | 56 °C
